# Experimental data taken from patent US12275725B2, “Inhibitors of the notch transcriptional activation complex and methods for use of the same” (University of Miami, priority 2019, dated 2025).
# Read-outs that look alike come from different tables or passages of the source.
# Experiments:
# [1] = molecular target: T1, Notch transcriptional activation complex (NTC) (Homo sapiens, UniProt P46531+Q06330); assay: Notch complex assembly assay (NTC AlphaScreen assay); assay type: binding
# T1 construct: made in house; host or cells: SF21 insect cells (baculovirus)
# T1 sequence (P46531 1754-2555 limits assumed): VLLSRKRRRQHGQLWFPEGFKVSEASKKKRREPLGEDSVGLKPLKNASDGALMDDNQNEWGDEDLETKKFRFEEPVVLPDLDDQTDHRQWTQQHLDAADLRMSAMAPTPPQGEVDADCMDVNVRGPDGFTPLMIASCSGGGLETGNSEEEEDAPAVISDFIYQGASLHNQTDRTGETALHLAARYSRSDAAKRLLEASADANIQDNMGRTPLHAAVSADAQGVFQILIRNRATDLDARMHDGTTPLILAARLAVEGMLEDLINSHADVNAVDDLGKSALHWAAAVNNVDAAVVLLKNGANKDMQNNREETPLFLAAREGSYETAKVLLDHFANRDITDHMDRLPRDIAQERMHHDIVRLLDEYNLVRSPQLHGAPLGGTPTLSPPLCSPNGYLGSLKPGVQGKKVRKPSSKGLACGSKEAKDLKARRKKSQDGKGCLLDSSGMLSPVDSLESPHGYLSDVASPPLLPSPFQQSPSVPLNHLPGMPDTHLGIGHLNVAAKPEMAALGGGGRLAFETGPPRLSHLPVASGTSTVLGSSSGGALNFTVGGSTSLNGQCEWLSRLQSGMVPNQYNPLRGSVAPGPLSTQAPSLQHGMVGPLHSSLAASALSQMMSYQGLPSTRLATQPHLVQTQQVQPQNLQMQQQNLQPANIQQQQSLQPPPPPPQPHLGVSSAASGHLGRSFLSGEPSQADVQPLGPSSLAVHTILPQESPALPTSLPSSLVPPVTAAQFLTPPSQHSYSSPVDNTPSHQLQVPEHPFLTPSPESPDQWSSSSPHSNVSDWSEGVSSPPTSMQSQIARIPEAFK
# T1 sequence (Q06330 whole entry): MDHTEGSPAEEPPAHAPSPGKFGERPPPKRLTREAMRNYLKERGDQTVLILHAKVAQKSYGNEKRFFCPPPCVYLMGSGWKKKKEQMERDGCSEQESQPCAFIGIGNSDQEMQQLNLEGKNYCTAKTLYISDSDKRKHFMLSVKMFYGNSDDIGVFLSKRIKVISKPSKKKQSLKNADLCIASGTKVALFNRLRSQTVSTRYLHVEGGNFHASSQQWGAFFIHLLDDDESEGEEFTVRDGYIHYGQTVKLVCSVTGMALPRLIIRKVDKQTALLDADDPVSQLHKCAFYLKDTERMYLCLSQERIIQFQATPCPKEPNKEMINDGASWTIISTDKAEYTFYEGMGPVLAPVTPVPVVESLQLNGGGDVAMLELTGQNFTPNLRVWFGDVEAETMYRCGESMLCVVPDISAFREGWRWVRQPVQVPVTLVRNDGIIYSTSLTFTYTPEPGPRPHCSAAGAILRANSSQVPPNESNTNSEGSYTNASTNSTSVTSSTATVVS
# Procedure: Notch Complex Assembly Assay
# All recombinant proteins were expressed using baculovirus expression vectors in SF21 cells and purified. Unless otherwise stated, all assays contained 125 fmol of double stranded oligonucleotide, CSL, Notch1 and MAML1 proteins. Reactions were carried out in Tris-buffered saline with 0.1% Tween (“TBS-T”) buffer containing 0.2% bovine serum albumin (“BSA”) and 100 μg/mL salmon sperm DNA. Briefly, the Notch complex was assembled on a biotinylated double stranded (“DS”) oligonucleotide harboring one CSL binding site (5′-[…]-3′). Complex assembly was quantitated using ALPHASCREEN technology (Perkin Elmer). Proteins in the complexes were detected using specific antibodies to either MAML1 (Cell signaling, D3K7B), Notch1 (Abcam, 52627) or CSL (anti-His, Abcam 18184). Streptavidin conjugated […] beads (Perkin Elmer, 6760002) were used to bind the DS oligonucleotide, and Protein-A conjugated […] beads (Perkin Elmer, 6760137) were used to detect antibody-coated proteins. For screening compounds, Notch transcriptional activation complex (“NTC”) components were added to wells that already contained the inhibitor to be assayed and allowed to incubate for 30 minutes. The ALPHASCREEN plate (Perkin Elmer, 6008350) was then read on an Envision Plate reader (Perkin Elmer) as specified by the manufacturer.
# [2] = Pharmacokinetic study in mouse plasma; assay type: in vivo; conditions: for Cmax: read-out: *C0/Cmax; for bioavailability: mouse
# Procedure: Pharmacokinetic studies were performed as previously described (Astudillo et al. (2016) Cancer Res). The following treatments were administered: NADi-260 via intraperitoneal (i.p.) route at 100 mg/kg, NADI-260 via intravenous route (i.v.) at 2 mg/kg, NADi-351 via i.p. at 10 mg/kg, NADi-351 via […] at 10 mg/kg and NADi-351 via oral route (PO) at 50 mg/kg. Blood samples were collected from each treatment group and their respective control grounds, plasma was separated from blood immediately by centrifugation at 4000 rpm for 10 min at 4° C. and stored below −70° C. until bioanalysis. All samples were processed for analysis by protein precipitation using acetonitrile and analyzed by fit for purpose LC-MS/MS method. Pharmacokinetic parameters were calculated using the non-compartmental analysis module of Phoenix WinNonlin (Version 6.3). Histological Analysis of Mouse Intestine Tissue
# [3] = GSH ethyl ester conjugation / parent remaining in human liver microsomes; assay type: in vitro ADME; conditions: for Percentage (%) Parent Remaining in HLM: reacted with GSH
# [4] = test system: OE33 cell line (esophageal adenocarcinoma); assay: Tumor sphere viability, MTT assay, OE33; assay type: cell-based, human; conditions: OE33, 72 hours of treatment
# Procedure: FIG. 4A depicts a graph showing the ability of NADi-351 to inhibit the tumor sphere viability of the OE33 cell line (esophageal adenocarcinoma) after 72 hours of treatment using the Methylthiazolyldiphenyl-tetrazolium bromide (“MTT”) assay.
# The compounds and salts disclosed herein can inhibit the viability of tumor spheres and decrease Notch target gene expression.
# OE33 cells, human esophageal adenocarcinoma cell lines, were obtained from the European Collection of Cell Culture. SUM-149 and SUM-159, breast cancer cell lines, were obtained from Dr. Joyce Slingerland at the University of Miami School of Medicine. The following cell lines were obtained directly from the ATCC: 786-0, a human renal cell adenocarcinoma cell line; HT-1080, a human fibrosarcoma cell line; MCF-7, a mammary gland adenocarcinoma; T47D, a human mammary ductal carcinoma cell line; and H-23 a non-small cell lung adenocarcinoma cell line. All cell lines were propagated in growth media as specified.
# [5] = test system: OE33 cell line (esophageal adenocarcinoma); assay: Colony assay, OE33; assay type: cell-based, human; conditions: OE33, repeat dose every 48 hours for 10 days
# Procedure: Cells were plated into a 6 well plate at a density of 2000 cells/cm^2. Inhibitor treatment commenced 24 hours post seeding, and the media containing inhibitor was changed every 48 hours thereafter. […]
# [6] = test system: esophageal adenocarcinoma patient-derived xenograft (EAC47 PDX tumor); assay: Esophageal adenocarcinoma patient-derived xenograft (PDX) model; assay type: in vivo; conditions: NSG mice, 25 days of treatment
# Procedure: Mouse Xenograft Studies Six-week-old NOD-SCID gamma (“NSG”) mice were purchased from Jackson Laboratories and CD-1 Nude mice were purchased from Charles River Laboratories. For the cell line based xenografts assay, 5×10^6 OE19 cells in 200 μl serum-free culture medium were injected subcutaneously per mouse. The mice in the treatment group were injected with 15 mg/kg NADi-351 daily, and the mice in the control group were injected with the same volume of vehicle (DMSO). Subcutaneous tumor growth was measured once every 4 days using calipers along with body weight. The experiment was discontinued on day 28. PDX cancer models were established, as described in Zhang et al, Establishment of Patient-Derived Xenograft (PDX) Models of Human Breast Cancer, Current Protocols in Mouse Biology, 3:21-29 (2013), in NSG mice. Briefly, 10 mm^3 pieces of primary EAC47 PDX tumor were transplanted subcutaneously into the flanks of NSG mice using a 13G telescopic needle. When the tumors reached 200 mm^3, the mice were split into two uniform groups for treatment. NADi-351 (20 mg/kg) and vehicle were administered daily by intraperitoneal (“IP”) injection for 24 days. Tumor growth was monitored every 4 days and tumor volume was measured by the formula: Volume=(S×S×L)/2, where S and L are the short and long dimensions. […]
# [7] = Pharmacokinetic study in mouse plasma; assay type: in vivo; conditions: iv, i.v. 10 mg/kg
# [8] = ip, i.p. 10 mg/kg, mouse plasma
# [9] = iv, i.v. 10 mg/kg, mouse plasma
# [10] = po, p.o. 50 mg/kg, mouse plasma
compound,measurement,setting,value
"COc1cc(/C(C)=C2\SC(=S)N(CC(=O)N(C)C)C2=O)cc(F)c1OCc1nnc[nH]1 [NADi-351, (Z)-2-(5-(1-(4-((1H-1,2,4-triazol-3-yl)methoxy)-3-fluoro-5-methoxyphenyl)ethylidene)-4-oxo-2-thioxothiazolidin-3-yl)-N,N-dimethylacetamide]",IC50,"[1]; Table E, NTC AlphaScreen assay, read-out: *IC50",2.4 nM
same,increase in potency over NADi-260,[1]; methylated at the alkene vs NADi-260,10 fold
same,AUC(0-inf),[2]; [8],4550 ng·h/mL
same,AUC(0-t),[2]; [8],4550 ng·h/mL
same,Tmax,[2]; [8],15 min
same,Cmax,[2]; [8],8200 ng/mL
same,AUC(0-inf),[2]; [9],4570 ng·h/mL
same,clearance,[2]; [9],36.5 mL/min/kg
same,half-life,[2]; [9],87.6 min
same,Vd,"[2]; iv, i.v. 10 mg/kg, mouse plasma, read-out: Vss",0.8 L/kg
same,metabolic stability compared with NADi-260,"[2]; mouse plasma, FIG. 3",significantly improved metabolic stability
same,bioavailability,[2]; FIG. 3,excellent bioavailability
same,bioavailability,"[2]; plasma, po, p.o. 50 mg/kg, read-out: % F",> 100%
same,AUC(0-inf),[2]; [10],38000 ng·h/mL
same,AUC(0-t),[2]; [10],37900 ng·h/mL
same,Tmax,[2]; [10],30 min
same,Cmax,[2]; [10],17500 ng/mL
same,Percentage (%) Parent Remaining in HLM,[3]; incubation time 0 min,100%
same,Percentage (%) Parent Remaining in HLM,[3]; incubation time 60 min,86%
same,GSH ethyl ester conjugation in HLM,[3]; within 60 minutes of incubation,increased stability toward GSH ethyl ester conjugation
same,decrease of tumor sphere viability,[4],about 75%
same,colony formation,[5],decreased colony formation
same,body weight of the subjects,[6],remained constant
same,volume of the tumor,[6]; compared to control,significantly inhibited compared to control
same,AUC(0-t),[7],4570 ng·h/mL
same,Cmax,"[7]; back extrapolated, read-out: *C0/Cmax",15900 ng/mL
same,solubility,"physchem; pH 1.2, simulated gastric fluid",158 ± 7.7 µM
same,solubility,"physchem; pH 6.5, fassif",150 ± 4.1 µM
same,solubility,"physchem; pH 7.4, aqueous buffer",155 ± 9.6 µM
